Source: patent publication US20120022070A1, “Heat Shock Protein 90 Inhibitors, Methods Of Preparing Same, And Methods For Their Use” (EMORY UNIVERSITY, priority 2008, published 2012)
Read-outs that look alike come from different tables or passages of the source.

How the values were obtained:
[1] = tested on: Her2 protein in MCF-7 breast cancer cells; test: Cell-based Her2 degradation assay by Western Blot; details: Homo sapiens
Source text: Addition of Hsp90 inhibitors to cancer cells induces the proteasomal degradation of a subset of proteins involved in signal transduction such as Raf1 kinase, Akt and certain transmembrane tyrosine kinases such as Her2. Thus, Her2 degradation in cells is a functional read-out of Hsp90 inhibition. Correlation between Hsp90 binding and Her2 degradation in cancer cells is indicative of a selective biological effect in these cells via Hsp90.
A Western blot-based assay was used to measure the cellular level of Her2 protein in MCF-7 breast cancer cell lysates collected after 24 hours of compound treatment. […] Then 2×10^5 cells were seeded in 24 well plates in 500 μl PRMI1640 medium and allowed to attach overnight. The compounds were dissolved in DMSO, added to the wells, and incubated for 24 hours. The cells were washed using ice-cold phosphate-buffered saline (PBS) and lysed in 1% NP40 lysis buffer (10 mM HEPES, pH 7.4, 150 mM NaCl, 1% Nonident P-40, 5 mM Pyrophosphate, 5 mM NaF, 2 mM Orthovanadate, 10 ug/ml Aprotinin, 10 ug/ml Leupeptin, 1 mM PMSF). After boiling with 6×SDS sample buffer, the cell lysates were separated by SDS-PAGE and transferred to nitrocellulose membrane. The membranes were blocked with 5% milk in tris-buffered saline buffer.

[2] = tested on: tumor specific Hsp90 (NCI-N417 cell lysate); test: Hsp90 binding FP competition assay; parameters: species or system human
Source text: There are several assays that have been developed to identify novel Hsp90 inhibitors based on the interaction of small molecules with recombinant Hsp90 protein, either yeast or human. To measure a therapeutically significant state of Hsp90, an FP assay that uses human cancer cell lysates instead of recombinant protein (Du, Moulick et al. J. Biomol. Screen, 2007, 12, 915-24) was utilized. It probes the interaction of small molecules with tumor-specific Hsp90 and may therefore lead to inhibitors that are not only selective for cancer cells but also specific for a particular malignancy.
The dose-response effect of the compounds was tested in Hsp90 binding FP competition assays to obtain the IC50 of the compounds. The Hsp90 FP competition assay was performed in 384-well black plate using the small-cell lung carcinoma (SCLC) cell line NCI-N417 as a source of tumor specific Hsp90 and the Cy3B-labeled geldanamycin (GM-cy3B) as the FP ligand. The compound was dissolved in DMSO and added at several concentrations to the reaction buffer containing both GM-cy3B (5 nM) and NCI-N417 cell lysate (1 μg/well) in a final volume of 50 μL. Free GM-cy3B (5 nM) and bound GM-cy3B with NCI-N417 cell lysate (5 nM GM-cy3B and 1 μg/well of NCI-N417 cell lysate) were included as controls in each plate. After incubating at room temperature for 2 to 16 hours, the polarization values were measured and expressed as millipolarization (mP) units using Analyst HT plate reader (Molecular Devices). The competitive efficiency of the compounds were expressed as a percentage of control and calculated according to the following equation:
% of control=((mPc−mPf)/(mPb−mPf))×100
where mPc is the recorded mP from compound wells, mPf is the average recorded mP from GM-cy3B-only wells, and mPb is the average recorded mP from wells containing both GM-cy3B and NCI-N417 lysate. IC50 values were determined using a nonlinear regression analysis as implemented in Prism 4.0 (Graphpad Software).

[3] = tested on: SKBR3 breast cancer cells; test: Cancer cell growth inhibition assay (CellTiter-Blue); format: cell-based; details: Homo sapiens, SK-BR-3, Table 2, 96 hours
Protocol: The effects of the compounds on cancer cell growth were determined using the CellTiter-Blue cell viability assay (Promega). CellTiter-Blue® Cell Viability is based on the ability of living cells to convert a redox dye (resazurin) into a fluorescent end product (resorufin).
The SKBR3 breast cancer cells were plated in 384-well microtiter plates (Costar) and allowed to attach overnight. After treatment with either compounds or vehicle (DMSO) for 96 hours, the cells were measured for their viability by CellTiter-Blue. Briefly, 10 μl of CelTiter-Blue were added to each well in 384-well plates and incubated at 37° C. for 4 hours. The fluorescence intensity (FI) was measured using the Analyst HT plate reader (Molecular Devices) with an excitation at 545 nm and emission at 595 nm. The IC50 was calculated as the compound concentration that inhibits cell viability by 50% compared with vehicle control wells. The IC50 values were determined as described above.

[4] = tested on: Her2 protein in SKBr3 breast cancer cells; test: Cell-based Her2 degradation assay by Cytoblot; details: Homo sapiens, SK-BR-3, Table 2, values with asterisk, 24 hours
Protocol: Cellular Her2 level after compound treatment was also monitored by microtiter-based Her2 degradation assay, Cytoblot assay (Huezo, Vilenchik et al. Chem. Biol., 2003, 10, 629-634). This is a cell-based assay that enables the quantitative analysis of intracellular levels of Her2 protein.
The human breast cancer cell lines SKBr3 were maintained in RPMI1640 medium supplemented with 10% FBS. 3000 cells in 100 μl of growth medium were plated per well in black, clear-bottom microtiter plates (Corning) and allowed to attach for at least 24 hours at 37° C. and 5% CO2. Compounds at different doses or vehicle (DMSO) were carefully added to the wells and incubated for 24 hours. The cells were washed twice with ice-cold Tris buffer saline (TBS) containing 0.1% Tween 20 (TBST) and fixed with ice-cold methanol. After washing with TBST, the plate was incubated at RT for 1 hour with SuperBlock (Pierce 37535) and overnight at 4° C. with the anti-Her-2 antibody (Santa Cruz Biotechnology). The plate was then washed with TBST and incubated at RT for 2 hours with an anti-rabbit HRP-linked antibody (Sigma A0545). The chemiluminescent substrate solution (Pierce 38040) was added and the plate was read 5 minutes later in an Analyst HT plate reader (Molecular Devices). Luminescence readings resulting from compound-treated cells versus untreated cells (vehicle treated) were quantified and plotted against compound concentrations to give the IC50 values (defined as concentration of compound required to degrade 50% of total Her2).

[5] = MCF7, Table 1, MCF-7 cells, 24 hours of compound treatment, read-out: Her2 degradation WB IC50
[6] = MCF7, 24 h, read-out: Her2 degradation WB IC50

SMILES | IC50 [1, 5] [µM] | IC50 ([2]; Table 1, GM-cy3B 5 nM) [µM] | IC50 [1, 6] [µM] | also measured
NC1=CC(=O)C(=O)c2ccccc21 [Compound 31] | 10 to 30 | 2.18 | – | –
O=C1C=C(Nc2ccc(Br)cc2)c2ccccc2C1=O [Compound 36] | – | 1.4 | ~30 | –
COc1cc(Br)c(NC2=CC(=O)C(=O)c3ccccc32)cc1OC [Compound 66] | – | – | – | IC50 ([2]; Table 2, GM-cy3B 5 nM): 0.61 µM; IC50 [3]: 10.9 µM; IC50 [4]: 22.4 µM
O=C1C=C(NCCCCC2CCCCC2)c2ccccc2C1=O [Compound 22] | > 30 | – | – | FP Assay IC50 ([2]; Table 1, GM-cy3B 5 nM): inactive
O=C1C=C(Nc2ccc(Cl)cc2Cl)c2ccccc2C1=O [Compound 37] | – | 4.7 | ~30 | –
O=C1C=C(N2CCNCC2)c2ccccc2C1=O [Compound 62] | – | – | – | IC50 ([2]; Table 2, GM-cy3B 5 nM): 1.55 µM; IC50 [3]: > 20 µM; IC50 [4]: 22.7 µM
COc1cc(NC2=CC(=O)C(=O)c3ccccc32)cc(OC)c1OC [Compound 60] | – | – | – | IC50 ([2]; Table 2, GM-cy3B 5 nM): 0.18 µM; IC50 [3]: 2.42 µM; IC50 [4]: 8.58 µM
O=C1C(=O)c2cccnc2C(NC2CC3CCC2C3)=C1Cl (stereo not shown) [Compound 2] | ~2.5 | – | – | –
O=C1C=C(N2CCOCC2)c2ccccc2C1=O [Compound 23] | – | 0.63 | ~10 | –
Cc1cccc(NC2=CC(=O)C(=O)c3ccccc32)c1 [Compound 41] | – | 1.06 | ≥ 10 | –
CN(C1=CC(=O)C(=O)c2ccccc21)c1ccccc1 [Compound 18] | – | 0.39 | ~10 | –
N#CCCCCNC1=CC(=O)C(=O)c2cccnc21 [Compound 10] | ~10 | – | – | –
Cc1ccc(NC2=CC(=O)C(=O)c3ccccc32)cc1 [Compound 15] | – | 0.96 | ~10 | –
O=C1C(=O)c2cccnc2C(NCc2ccccc2)=C1Cl [Compound 3] | ~2.5 | – | – | –
Cc1ccc(NC2=CC(=O)C(=O)c3ccccc32)c(C(=O)O)c1 [Compound 68] | – | – | – | IC50 ([1]; MCF7, Table 2, values without asterisk, MCF-7 cells, 24 hours, read-out: IC50, Her2 degradation WB): > 30 µM; IC50 [3]: > 20 µM
O=C1C=C(Nc2ccccc2)c2ccccc2C1=O [Compound 32] | – | 7.4 | < 30 | –
NC(=O)C(=O)CC(=O)c1ccccc1NC1=CC(=O)C(=O)c2ccccc21 [Compound 39] | > 30 | 4.2 | – | –
O=C1C=C(Nc2ccc(Cl)cc2)c2ccccc2C1=O [Compound 19] | – | 0.68 | < 10 | –

SMILES | IC50 [1, 5] [µM] | IC50 ([2]; Table 1, GM-cy3B 5 nM) [µM] | IC50 [1, 6] [µM] | also measured
O=C1C=C(NCCc2ccccc2)c2ccccc2C1=O [Compound 17] | ~10 | 4 | – | –
CN1CCN(C2=CC(=O)C(=O)c3ccccc32)CC1 [Compound 47] | 5 to 10 | 0.39 | – | –
Cc1ccc(C)c(NC2=CC(=O)C(=O)c3ccccc32)c1 [Compound 25] | – | 1.59 | > 30 | –
O=C1C=C(Nc2cccc(Cl)c2)c2ccccc2C1=O [Compound 28] | – | – | > 30 | –
NC1=CC(=O)C(=O)c2cccnc21 [Compound 4] | > 20 | – | – | –
C=CCN(CC=C)C1=CC(=O)C(=O)c2ccccc21 [Compound 24] | ~10 | 2.19 | – | –
Cc1cccc(C)c1NC1=CC(=O)C(=O)c2ccccc21 [Compound 26] | – | 3.9 | > 10 | –
CCN(CC)C1=CC(=O)C(=O)c2ccccc21 [Compound 48] | – | 0.69 | 5 to 10 | –
O=C1C=C(Nc2ccccc2)c2ncccc2C1=O [Compound 1] | ~2.5 | – | – | –
CC(C)(C)OC(=O)N1CCN(C2=CC(=O)C(=O)c3ccccc32)CC1 [Compound 46] | 5 to 10 | 0.22 | – | –
CN(C)C1=C(Cl)C(=O)C(=O)c2cccnc21 [Compound 5] | > 20 | – | – | –
CC(N)CCCNC1=CC(=O)C(=O)c2cccnc21 (stereo not shown) [Compound 11] | 2.5 to 5 | – | – | –
CCCCCCN(CCCCCC)C1=CC(=O)C(=O)c2ccccc21 [Compound 38] | ~30 | 2.6 | – | –
O=C1C=C(Nc2ccc(O)cc2)c2ccccc2C1=O [Compound 43] | – | < 0.39 | ~10 | –
CCc1cccc(CC)c1NC1=CC(=O)C(=O)c2ccccc21 [Compound 34] | – | 3.55 | > 30 | –
Cc1ccc(NC2=CC(=O)C(=O)c3ccccc32)c(C)c1 [Compound 13] | – | 1.85 | < 5 | –
CCN(CC)C1=C(Cl)C(=O)C(=O)c2cccnc21 [Compound 6] | > 20 | – | – | –

Second part, led by results:

IC50 [1, 5] [µM] | IC50 ([2]; Table 1, GM-cy3B 5 nM) [µM] | SMILES | IC50 [1, 6] [µM] | also measured
~10 | 0.81 | COc1cccc(NC2=CC(=O)C(=O)c3ccccc32)c1 [Compound 42] | – | –
> 30 | 3.06 | O=C1C=C(Nc2cc(Cl)ccc2Cl)c2ccccc2C1=O [Compound 33] | – | –
~10 | 0.67 | O=C1C=C(Nc2cccnc2)c2ccccc2C1=O [Compound 16] | – | –
> 30 | – | O=C1C=C(Nc2cccc(Br)c2)c2ccccc2C1=O [Compound 27] | – | –
> 30 | 1.73 | CC(C)c1cccc(C(C)C)c1NC1=CC(=O)C(=O)c2ccccc21 [Compound 44] | – | –
~10 | < 0.39 | Cc1ccnc(NC2=CC(=O)C(=O)c3ccccc32)c1 [Compound 12] | – | –
> 30 | 1.33 | O=C1C=C(Nc2cccc(C(=O)O)c2)c2ccccc2C1=O [Compound 30] | – | –
> 10 | 0.23 | COc1ccc(NC2=CC(=O)C(=O)c3ccccc32)c([N+](=O)[O-])c1 [Compound 52] | – | –
> 30 | 3 | Cc1cc(Br)ccc1NC1=CC(=O)C(=O)c2ccccc21 [Compound 35] | – | –
< 10 | 1.07 | Cc1ccc(NC2=CC(=O)C(=O)c3ccccc32)cc1C [Compound 29] | – | –
~10 | 0.6 | O=C1C=C(Nc2cccc(O)c2)c2ccccc2C1=O [Compound 20] | – | –
1 to 10 | 0.45 | O=C1C=C(Nc2ncccn2)c2ccccc2C1=O [Compound 14] | – | –
~10 | 1 | CCOc1ccc(NC2=CC(=O)C(=O)c3ccccc32)cc1 [Compound 21] | – | –
> 30 | 10.5 | O=C1C=C(Nc2ccccc2C(=O)CC(=O)C(=O)Nc2ccc(Cl)c(Cl)c2)c2ccccc2C1=O [Compound 40] | – | –
